In patent US20260159497A1, “SOLID FORMS OF A COMPLEMENT FACTOR B INHIBITOR” (Novartis Pharma AG, priority 2022, published 2026):
In brackets after ≈: the same amount, converted by molar mass. Like-named read-outs stand apart in the source and are kept apart here.

Assays:
[1] = Water content by Karl Fischer titration; type: physicochemical; details: ambient conditions; relative to total weight of the salt / free form
[2] = Dynamic vapor sorption (DVS) mass change; type: physicochemical; details: for Mass change by DVS, Desorption (%) / Mass change by DVS, Sorption (%): Table 5, 25 degree C., based on dry weight
Excerpt: [table] The mass change by DVS isotherm (2 cycles 40-0-95-0-40% RH) are in the tables below. The mass change is based on the dry weight of each.

[3] = Solubility in water and biorelevant buffers at 25° C.; type: physicochemical; details: 25° C., 24 h; for solubility at 24 h: thermodynamic from solid, read-out: Solubility (mg/mL) S
Procedure: Purchase sodium taurocholate (NaTC) from supplier. Account for assay. Add amount corresponding to 3 mM to PBS V1. Stir until dissolved. Equilibrate 1 h at 25° C. or 37° C. before use. Dispose after 48 h.
Purchase FaSSIF-V2 from supplier (biorelevant.com). Amount added to PBS-V1 according to Table 1. Stir until dissolved. Equilibrate 1 h at 25° C. or 37° C. before use. Dispose after 48 h.
Purchase FeSSIF-V2 from supplier (biorelevant.com). Amount added to PBS-V1 according to Table 1. Stir until dissolved. Equilibrate 1 h at 25° C. or 37° C. before use. Dispose after 48 h.

[4] = Intrinsic dissolution rate; type: physicochemical
[5] = Compression stability (XRPD after compression); type: physicochemical; details: 4 tons of compression for 5 min
Excerpt: Method: […] Afterwards, characterize the sample by XRPD to detect any change in the solid state.

[6] = Grinding and wet granulation; type: physicochemical
Excerpt: Method: Granulate was obtained in solid-state forms. […] Dry the wet-cake under vacuum or at atmospheric pressure. Evaluate solid form and degree of crystallinity by e.g. XRPD and/or DSC.

[7] = Solubility in Simulated Fluids at 37° C.; type: physicochemical; details: for solubility at 30 min / solubility at 24 h: 37 °C, thermodynamic from solid; for solubility at 30 min: read-out: Solubility (mg/mL) 30 min; for solubility at 24 h: read-out: Solubility (mg/mL) 24 h
Excerpt: Solubility data of Form A (S)-4-(2,2-difluoro-7-((5-methoxy-7-methyl-1H-indol-4-yl)methyl)-7-azaspiro[3.5]nonan-6-yl)benzoic acid, Form B (S)-4-(2,2-difluoro-7-((5-methoxy-7-methyl-1H-indol-4-yl)methyl)-7-azaspiro[3.5]nonan-6-yl)benzoic acid p-toluene sulfonic acid salt, Form C (S)-4-(2,2-difluoro-7-((5-methoxy-7-methyl-1H-indol-4-yl)methyl)-7-azaspiro[3.5]nonan-6-yl)benzoic acid p-toluene sulfonic acid salt, and Form D (S)-4-(2,2-difluoro-7-((5-methoxy-7-methyl-1H-indol-4-yl)methyl)-7-azaspiro[3.5]nonan-6-yl)benzoic acid hydrochloride salt in Simulated Fluids at 37° C.

[8] = Stability of Forms A and B under stress conditions (temperature/humidity, capsules, light)
[9] = pH 2.0, 0.01 M HCl, 37° C., 100 rpm, 120 min
[10] = pH 6.5, phosphate buffer 50 mM (PBS-V1), 37° C., 100 rpm, 120 min

## COc1cc(C)c2[nH]ccc2c1CN1CCC2(C[C@H]1c1ccc(C(=O)O)cc1)CC(F)(F)C2 [Form A, (S)-4-(2,2-difluoro-7-((5-methoxy-7-methyl-1H-indol-4-yl)methyl)-7-azaspiro[3.5]nonan-6-yl)benzoic acid]
[1]
  water content by Karl Fischer titration: 0.15 % w/w
[2]; 95% RH at 25° C.
  moisture absorbed by DVS (absorbs up to): up to 0.45%
[2]; 0% RH
  Mass change by DVS, Desorption (%): −0.01%
  Mass change by DVS, Sorption (%): 0.00%
[2]; 10% RH
  Mass change by DVS, Desorption (%): 0.06%
  Mass change by DVS, Sorption (%): 0.04%
[2]; 20% RH
  Mass change by DVS, Desorption (%): 0.12%
  Mass change by DVS, Sorption (%): 0.08%
[2]; 30% RH
  Mass change by DVS, Desorption (%): 0.17%
  Mass change by DVS, Sorption (%): 0.13%
[2]; 40% RH
  Mass change by DVS, Desorption (%): 0.22%
  Mass change by DVS, Sorption (%): 0.17%
[2]; 50% RH
  Mass change by DVS, Desorption (%): 0.26%
  Mass change by DVS, Sorption (%): 0.22%
[2]; 60% RH
  Mass change by DVS, Desorption (%): 0.32%
  Mass change by DVS, Sorption (%): 0.26%
[2]; 70% RH
  Mass change by DVS, Desorption (%): 0.35%
  Mass change by DVS, Sorption (%): 0.30%
[2]; 80% RH
  Mass change by DVS, Desorption (%): 0.38%
  Mass change by DVS, Sorption (%): 0.35%
[2]; 90% RH
  Mass change by DVS, Desorption (%): 0.42%
  Mass change by DVS, Sorption (%): 0.40%
[2]; 95% RH
  Mass change by DVS, Desorption (%): 0.45%
  Mass change by DVS, Sorption (%): 0.45%
[3]; FaSSGF, pH 1.6
  pH of solubility sample (pH): 1.68
[3]; PBS-V1 + 3 mM NaTC, pH 6.5
  pH of solubility sample (pH): 6.51
[3]; PBS-V1 + 0.3 FeSSIF-V2, pH 6.5
  pH of solubility sample (pH): 6.52
[3]; PBS-V1 + 2.0 FeSSIF-V2, pH 6.5
  pH of solubility sample (pH): 6.73
[3]; PBS-V1 + FaSSIF-V2, pH 6.5
  pH of solubility sample (pH): 6.69
  solubility at 24 h: 0.072 mg/mL
[3]; PBS-V1 + FeSSIF-V2, pH 6.5
  pH of solubility sample (pH): 6.74
  solubility at 24 h: 0.094 mg/mL
[3]; fassgf or other biorelevant, FaSSGF, pH 1.6
  solubility at 24 h: > 2 mg/mL
[3]; fassgf or other biorelevant, PBS-V1 + 3 mM NaTC, pH 6.5
  solubility at 24 h: 0.068 mg/mL
[3]; fassgf or other biorelevant, PBS-V1 + 0.3 FeSSIF-V2, pH 6.5
  solubility at 24 h: 0.074 mg/mL
[3]; fassgf or other biorelevant, PBS-V1 + 2.0 FeSSIF-V2, pH 6.5
  solubility at 24 h: 0.12 mg/mL
[3]; water
  solubility at 24 h: 0.052 mg/mL (≈ 114 µM)
  pH of solubility sample (pH): 7.40
[4]; PBS-V1 (pH 6.5)
  intrinsic dissolution rate: 0.0028 mg/min/cm^2
[4]; pH 2.0, 0.01 M HCl
  intrinsic dissolution rate: 0.081 mg/min/cm^2
[4]; [9]
  form change after intrinsic dissolution: (No form change)
  intrinsic dissolution rate: 0.081 mg · min^−1 · cm^−2
[4]; [10]
  form change after intrinsic dissolution: (No form change)
  intrinsic dissolution rate: 0.0028 mg · min^−1 · cm^−2
[5]
  form change in XRPD after compression: no form change
[6]; after grinding
  crystallinity from XRPD pattern after grinding: crystallinity decrease
[6]; dry grinding (2 min and 5 min) and wet granulation (water and ethanol)
  form change after grinding and wet granulation: did not lead to any form change
[7]; fassgf or other biorelevant, FaSSGF, 30 min
  solubility at 30 min: 2.28 mg/mL (≈ 5020 µM)
[7]; fassgf or other biorelevant, FaSSGF, 24 h
  solubility at 24 h: > 2 mg/mL
[7]; fassif, FaSSIF, 30 min
  solubility at 30 min: 0.24 mg/mL (≈ 528 µM)
[7]; fassif, FaSSIF, 24 h
  solubility at 24 h: 0.18 mg/mL (≈ 396 µM)
[7]; fessif, FeSSIF, 30 min
  solubility at 30 min: 0.31 mg/mL (≈ 682 µM)
[7]; fessif, FeSSIF, 24 h
  solubility at 24 h: 0.31 mg/mL (≈ 682 µM)
[7]; pH 7, water, Water, initial pH 7.00, 30 min
  solubility at 30 min: 0.21 mg/mL (≈ 462 µM)
[7]; pH 7, water, Water, initial pH 7.00, 24 h
  solubility at 24 h: 0.22 mg/mL (≈ 484 µM)
[7]; FaSSGF
  pH at 24 h: 1.61
[7]; FaSSIF
  pH at 24 h: 6.48
[7]; FeSSIF
  pH at 24 h: 5.00
[7]; Water, initial pH 7.00
  pH at 24 h: 7.12
[8]; 50° C. with 11% and 75% RH for 2 weeks
  stability in HPMC and HGC capsules: chemically and physically stable
[8]; 1200 kLux light stress
  degradation under light stress: about 0.9%
[8]; exposed to 80% or 92% RH for 24 hrs
  form change by XRPD after humidity exposure: no change
[8]; stored at 50° C. with 11% RH or 75% RH for 1 week
  chemical stability in bulk state: chemically stable
[8]; stored at 80° C. with 11% RH or 75% RH
  discoloration in bulk state: slight to medium discoloration
[8]; temperature/humidity and light stress conditions
  polymorphic form in the stress conditions: unchanged
